“And” between values parts separate entries of the source, which are not always exact repeats. Identical values can stand only once.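 Where inhibition never reached the appropriate level, the endpoint shown equals the highest concentration tested. Otherwise, values were interpolated linearly from a five-concentration, 48-hour dose response in 96-well plates. GI50 marks 50% less growth. Definition used: TGI = concentration required for complete inhibition of growth.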
Experiments:
Assay in all cases: DTP human tumour cell line panel, 48 h
CAKI-1 renal = system: CAKI-1 renal
UACC-62 melanoma = system: UACC-62 melanoma
PC-3 prostate = system: PC-3 prostate
M14 melanoma = system: M14 melanoma
SR leukemia = system: SR leukemia
KM12 colon = system: KM12 colon
HOP-92 NSCLC = system: HOP-92 NSCLC
SK-MEL-28 melanoma = system: SK-MEL-28 melanoma
NCI-H226 lung = system: NCI-H226 lung
SNB-75 CNS = system: SNB-75 CNS

Structure (SMILES) | TGI (CAKI-1 renal) [µM] | TGI (UACC-62 melanoma) [µM] | TGI (PC-3 prostate) | TGI (M14 melanoma) [µM] | TGI (SR leukemia) | TGI (KM12 colon) | TGI (HOP-92 NSCLC) [µM] | TGI (SK-MEL-28 melanoma) [µM] | TGI (NCI-H226 lung) | TGI (SNB-75 CNS) | GI50 (CAKI-1 renal) [µM] | GI50 (UACC-62 melanoma) | GI50 (PC-3 prostate) | GI50 (M14 melanoma) | GI50 (SR leukemia) [µM] | GI50 (KM12 colon) | GI50 (HOP-92 NSCLC) [µM] | GI50 (SK-MEL-28 melanoma) | GI50 (NCI-H226 lung) | GI50 (SNB-75 CNS) [µM]
O=C(O)Cc1ccc(N=Nc2c(O)c(C(=O)O)cc3ccccc23)cc1 | > 100 | > 100 | > 100 µM | > 100 | > 100 µM | > 100 µM | > 100 | > 100 | > 100 µM | > 100 µM |  |  |  |  |  |  |  |  |  | 
CCCCCCCCCCCCCCCCN(CC)CC | 3.24 | 3.28 | 5.97 µM | 3.84 | 4.51 µM | 3.59 µM | 3.94 | 3.84 | 16.9 µM | 9.03 µM | 1.69 | 1.75 µM | 2.16 µM | 1.94 µM | 1.99 | 1.87 µM | 1.74 | 1.91 µM | 3.74 µM | 2.39
COc1cc2nc3cc([N+](=O)[O-])ccc3c(NCCNCC(C)O)c2cc1OC (configuration not stated) | 10.9 |  | 2.46 µM | 2.96 | 2.16 µM | 2.87 µM | 2.31 |  | 3.18 µM | 2.07 µM | 2.5 |  | 0.512 µM | 1.25 µM | 0.286 | 0.619 µM | 0.367 |  | 1.05 µM | 0.675
Cn1c(=O)c(Oc2ccc(F)cc2F)cc2cnc(NC3CCOCC3)nc21 | > 25 | > 25 | > 25 µM | > 25 | > 25 µM | > 25 µM | 19.4 | > 25 | > 25 µM | > 25 µM | > 25 | > 25 µM | > 25 µM | > 25 µM | > 25 | > 25 µM | 0.601 | > 25 µM | > 25 µM | > 15.5
O=C1CC(CC(OCc2ccccc2)C(OCc2ccccc2)C(COCc2ccccc2)OCc2ccccc2)CC(=O)N1 (configuration not stated) |  |  | > 100 µM and 38.5 µM | > 100 | > 100 µM and 65.4 µM | > 100 µM and 21.3 µM | > 100 | > 100 | > 100 µM and 62.4 µM | > 100 µM and 75.2 µM |  |  | > 100 µM and 11.3 µM | > 100 µM and 19.8 µM |  |  |  | > 100 µM and 21.4 µM | > 100 µM and 17.7 µM | 
CC1(C)CCC(C)(C)c2cc(NC(=O)c3ccc(C(=O)O)cc3)ccc21 | 98.6 | 39.4 | > 70.6 µM | > 65.1 | > 100 µM | 59.5 µM | 64.1 | > 82.2 | > 79.5 µM | > 100 µM |  |  |  |  |  |  |  |  |  | 
C=C1C(=O)O[C@H]2[C@H]1CC/C(CNC(=O)/C=C/c1ccccc1F)=C\CC[C@@]1(C)O[C@@H]21 | 2.67 | 2.94 | 4.29 µM | 3.05 | 6.88 µM | 17.3 µM | 4.13 | 6.19 | 6.94 µM | 8.29 µM | 1.3 | 1.47 µM | 2 µM | 1.34 µM | 0.482 | 4.4 µM | 1.62 | 1.95 µM | 2.42 µM | 2.18
C=CCOC(=O)Nc1cccn([C@H](CC(C)C)C(=O)NCCC(C)C)c1=O | > 100 | > 100 | > 100 µM | > 100 | > 100 µM | > 100 µM | 57.8 | > 100 | > 100 µM | > 100 µM | 29 | > 100 µM | 49.7 µM | > 100 µM | 72.7 | 92.8 µM | 2.67 | > 100 µM | > 100 µM | 4.91
CN(C)Cc1c(C(=O)NCCOc2ccc(C(=O)NO)cc2)oc2ccccc12 | 1.57 | 0.63 | 5.06 µM | 1.68 | 12.4 µM | 2.34 µM | 0.424 | 2.5 | 7.6 µM | > 40.7 µM | 0.311 | 0.151 µM | 0.214 µM | 0.223 µM | 0.203 | 0.312 µM | 0.0603 | 0.267 µM | 0.626 µM | 0.153
CN(C)c1ccccc1[CH2][Ga]([Cl])[CH2]c1ccccc1N(C)C | 3.94 | 2.08 | 3.63 µM | 2.85 | 4.69 µM | 2.24 µM | 1.58 |  | 1.95 µM | 2.74 µM | 1.58 | 0.717 µM | 1.74 µM | 1.3 µM | 1.23 | 0.635 µM | 0.416 |  | 0.537 µM | 1.41
CCC1(c2ccc(N)cc2)CCC(=O)NC1=O (configuration not stated) | 4310 | > 4510 | 4550 µM | > 4560 | > 5000 µM | > 3870 µM | 3560 | > 5000 | > 4820 µM | 4490 µM |  |  |  |  |  |  |  |  |  | 
COc1ccc(NC(=O)c2ccc(NC3=C(Cl)C(=O)N(Cc4ccccc4)C3=O)cc2)c(OC)c1 | 1.96 | > 100 | > 100 µM | 48 | 3.98 µM | 92.8 µM | 47 | > 100 | > 100 µM | > 100 µM | 0.637 | 37.2 µM | 25.7 µM | 18.5 µM | 1.39 | 27.7 µM | 6.27 | 83.3 µM | 43.9 µM | 47.1
CC(C)C(=O)c1c(C(F)(F)F)n([O-])c2ccccc2[n+]1=O | 2.1 | 3.44 | 3.03 µM | 3.76 |  | 1.65 µM | 1.62 | 25.1 | 5.27 µM | > 42.7 µM | 0.689 | 1.59 µM | 0.688 µM | 1.74 µM | < 0.0197 | 0.563 µM | 0.466 | 9.06 µM | 1.86 µM | 15.2
COC(=O)[C@@H](C)C[C@H](Cc1ccccc1)NC(=O)c1csc([C@@H](C[C@H](C(C)C)N(C)C(=O)[C@@H](NC(=O)[C@H]2CCCN2C)C2CC2)OC(C)=O)n1 |  | > 25 | > 25 µM |  | > 25 µM | > 25 µM |  |  | > 25 µM | > 25 µM |  | 0.000445 µM and 0.0025 µM | 0.000545 µM and 0.0025 µM |  |  | 0.00222 µM and 0.0025 µM | 0.000286 | 0.0324 µM |  | 0.0025
